# Measurements: US7812142B2, “Pentose derivatives as anti-hyperglycemic drugs” (Yissum Research Development Company of the Hebrew …, priority 2002, dated 2010)
# Tests used:
# L8 myocytes = experiment: [3H]-2-deoxy-D-glucose (dGlc) uptake assay in L8 myocytes; type: cell-based
# Method: (§1) The time-course of D-xylose effect in two types of skeletal muscle cells (L8 myocytes and C2 myotubes) was studied. L8 myocytes and C2 myotubes preconditioned in 20 mM glucose were incubated with 20 mM xylose. After 90 min the cells were washed and incubated with 20 mM glucose, and subjected to a deoxyglucose dGlc uptake assay (14).
# (§2) It has shown before by the inventors of the present invention that deoxyglucose (dGlc) depresses the hexose transport system in myocytes and that a subsequent incubation with low (even no) glucose fails to reverse this effect of dGlc [Sasson, S et al (1997)]. The inventors have therefore measured the effect of D-xylose on rate of hexose transport following treatment with dGlc. In one experiment, C2 myotubes preconditioned with 2 mM glucose received fresh medium containing 2 mM dGlc. A portion of the cells were washed after 30 min and received 20 MM D-xylose or 2 mM D-glucose, and subjected to a dGlc uptake assay at different time points. In another experiment, L8 myocytes preconditioned with 2 mM glucose were washed and incubated with 2 mM xylose or 2 mM dGlc. A portion of the cells were washed again after 2 hr and incubated with 20 mM xylose, and subjected to a dGlc uptake assay at different time points.
# This conclusion is also supported by the finding of the a better ability of D-xylose than the other pentoses to reverse 2-deoxy-D-glucose-induced downregulation of the hexose transport system in L8 myocytes. L8 myocytes were preconditioned with 2 mM glucose, washed and incubated with 2 mM dGlc. After 30 min a portion of the cells were washed again and incubated with 20 mM xylose, ribose, arabinose or lyxose. Cells were subjected to the dGlc uptake assay at various time points.
# (§3) Uptake assay of the tritiated glucose analogue, 2-deoxy-D-glucose, is routinely performed as described in [Sasson, S. and Cerasi, E. (1986) J. Biol. Chem. 261, 16827-16833].
# C2 myotubes = experiment: dGlc uptake assay in C2 myotubes; type: cell-based, mouse
# Method: as §1
# The inventors have also measured the effect of different doses of D-xylose in C2 myotubes. C2 myotubes preconditioned with 20 mM glucose received fresh medium containing 20 mM glucose or increasing concentrations of D-xylose. Standard dGlc uptake assay was performed after 1 hr incubation. […] D-xylose augmented the rate of hexose transport ˜2-fold within 1-2 hr; half-maximal stimulation was observed within 20-30 min, as shown in FIG. 2.
# However, in the above experiments the cells were exposed to D-xylose after removal of the conditioning glucose concentration. […] The inventors therefore added 20 mM D-xylose to C2 myotubes in the presence of 8 or 16 mM glucose and followed its effect.
# as §2, §3
# [1] = system: isolated rat soleus muscles; experiment: dGlc uptake in isolated soleus muscles; type: cell-based; settings: 3 hr, 20 mM glucose with 20 mM xylose (FIG. 9)
# Method: FIG. 9: Effect of D-xylose on dGlc uptake in soleus muscles. Soleus muscles were isolated from Sabra male albino rats and incubated for 3 hr with 20 mM glucose in the absence or the presence of 20 mM xylose. The muscles were washed and subjected to dGlc uptake assay without or with insulin (500 nM). Mean±SEM (n=3).
# Some experiments with isolated rat soleus muscles were performed, in order to exclude cell-line specific effects, and to assess the physiologic relevance of the findings of the present invention. Soleus muscles were isolated from Sabra male albino rats and incubated for 3 hr with 20 mM glucose in the absence or the presence of 20 mM xylose. The muscles were washed and subjected to dGlc uptake assay without or with insulin (500 nM).
# The procedure follows that described before in [Sasson et al (1987), Diabetes 36, 1041-46].
# 3T3-L1 adipocytes = experiment: Screening of methylated xylose derivatives, dGlc uptake assay (Table 1); type: cell-based; settings: Mean±SEM (n=3-6)
# Source text: There are five carbon atoms in xylose available for chemical modifications. Each of these atoms was methylated by modifications of published chemical procedures [Bollenback, G. N. (1963) In Methods in carbohydrate chemistry, vol. 2 (Whistler, R. L. and Wolfrom, M. L., eds.), pp. 326-331, Academic Press, New York; Bowering, W. and Timel, T. (1958) Can. J. Chem. 36, 283-285; Levine, P. and Raymomd, A. (1933) J. Biol. Chem. 102, 331-344; Takeo, K. (1992) Carbohyd. Res. 224, 311-318]. All compounds were purified by HPLC and their structure verified by NMR spectroscopy. […] At the end of the incubation period the cells were taken for a standard [^3H]-2-deoxy-D-glucose uptake assay in the absence or the presence of 500 nM insulin (30 min exposure prior to the uptake assay).
# 3T3-L1 adipocytes and L6 myotubes were maintained for 24 hr at 20 mM glucose. Test compounds were added (0.1-20.0 mM) and the cells were incubated further for 2-45 hr. At the end of the incubation periods the cells were washed and taken for a standard [^3H]2-deoxy-D-glucose (dGlc) uptake assay. Uptake values (given for control cells) are in nmol dGlc/mg protein/min. Mean±SEM (n=3-6).
# as §3
# [2] = Half-life of D-xylose measured in rats; settings: rat, in vivo
# glucose transporter = experiment: Non-radioactive fluorimetric dGlc-6-P uptake assay with 10 mM dGlc; type: cell-based; settings: 10 mM dGlc in the uptake assay
# Method: Since the standard hexose transport assay utilizes 0.1 mM dGlc in the presence of tracer amount of [^3H] dGlc, the inventors asked whether the results shown above were limited to this particular assay condition. Therefore, experiments were repeated with 10 mM dGlc in the uptake assay. […] The uptake of hexose under these assay conditions was also linear up to 25 min.
# [3] = 20 mM xylose, cells preconditioned in 20 mM glucose (FIG. 1)
smiles,measurement,setting,value
O=C[C@H](O)[C@@H](O)[C@H](O)CO [D-xylose],reversal of 2-deoxy-D-glucose-induced downregulation of the hexose transport system,L8 myocytes; 20 mM pentose after 30 min 2 mM dGlc (FIG. 8),better than any of the other pentoses
same,rate of hexose transport downregulated by dGlc,L8 myocytes; 20 mM xylose after 2 hr 2 mM dGlc (FIG. 4B),increased the rate of hexose transport
same,rate of glucose transport,L8 myocytes; [3],increases the rate of glucose transport
same,time to half-maximal stimulation,C2 myotubes,20 to 30 min
same,rate of hexose transport downregulated by dGlc,C2 myotubes; 20 mM D-xylose after 30 min 2 mM dGlc (FIG. 4A),increased the rate of hexose transport
same,hexose transport in the presence of glucose,C2 myotubes; 20 mM D-xylose with 8 or 16 mM glucose (FIG. 3),augment hexose transport
same,effect of pentoses on the rate of hexose transport,"C2 myotubes; 20 mM pentose, preconditioned with 20 mM glucose (FIG. 7)",most effective pentose
same,rate of glucose transport,C2 myotubes; [3],increases the rate of glucose transport
same,concentration at which maximal effect is obtained,"C2 myotubes; dose-response, 1 hr incubation, preconditioned with 20 mM glucose (FIG. 2)",20 mM
same,augmentation of the rate of hexose transport,C2 myotubes; within 1-2 hr,~2 fold
same,increase of the rate of dGlc uptake,[1],42%
same,HEXOSE UPTAKE (Percent of Control) Without Insulin,"3T3-L1 adipocytes; 3T3-L1 adipocytes 24 hr at 20 mM glucose, test compounds 0.1-20.0 mM, 2-45 hr",189 ± 4% of Control
same,HEXOSE UPTAKE (Percent of Control) With Insulin,"3T3-L1 adipocytes; as E1, 500 nM insulin 30 min prior to uptake assay",158 ± 9% of Control
same,half-life,[2],30 to 60 min
same,competition for transport at high hexose level,glucose transporter,does not compete for transport via the glucose transporter
